Assay results reported in ChEMBL document CHEMBL4706632, “Development of Potential Antitumor Agents from the Scaffolds of Plant-Derived Terpenoid Lactones” (J Med Chem, 2020).

Legend:
HCT-116 [1] = experiment: Antiproliferative activity against human HCT-116 cells incubated for 72 hrs by WST-1 assay; assay type: functional, cell-based; settings: HCT-116, 72 h
MCF7 [2] = experiment: Cytotoxicity against human MCF-7 cells incubated for 72 hrs by MTT assay; assay type: functional, cell-based; settings: MCF7, 72 h
MDA-MB-231 [3] = experiment: Cytotoxicity against human MDA-MB-231 cells incubated for 72 hrs by MTT assay; assay type: functional, cell-based; settings: MDA-MB-231, 72 h
MDA-MB-435 = experiment: Antiproliferative activity against human MDA-MB-435 cells incubated for 48 hrs by [3H]-thymidine incorporation assay; assay type: functional, cell-based
MCF7 [4] = experiment: Antiproliferative activity against human MCF7 cells incubated for 48 hrs by [3H]-thymidine incorporation assay; assay type: functional, cell-based
[5] = Inhibition of PAFR in New Zealand rabbit platelets assessed as reduction in PAF-induced platelet aggregation measured within 5 mins by aggregometry analysis; assay type: tissue-based; settings: Oryctolagus cuniculus
P388 = experiment: Antiproliferative activity against mouse P388 cells; assay type: functional, cell-based
MDA-MB-231 [6] = experiment: Cytotoxicity against human MDA-MB-231 cells incubated for 48 hrs by MTT assay; assay type: functional, cell-based; settings: MDA-MB-231, 48 h
HepG2 = experiment: Cytotoxicity against human HepG2 cells incubated for 48 hrs by MTT assay; assay type: functional, cell-based; settings: HepG2, 48 h
PANC-1 = experiment: Cytotoxicity against human Panc-1 cells incubated for 48 hrs by MTT assay; assay type: functional, cell-based; settings: PANC-1, 48 h
HeLa = experiment: Cytotoxicity against human HeLa cells incubated for 48 hrs by MTT assay; assay type: functional, cell-based
AGS = experiment: Cytotoxicity against human AGS cells incubated for 48 hrs by MTT assay; assay type: functional, cell-based
HCT-116 [7] = experiment: Cytotoxicity against human HCT116 cells incubated for 72 hrs by ATPlite assay; assay type: functional, cell-based; settings: HCT-116, 72 h
WM 266-4 = experiment: Cytotoxicity against human WM 266-4 cells incubated for 72 hrs by ATPlite assay; assay type: functional, cell-based; settings: WM 266-4, 72 h

## COC(=O)[C@@]12OC[C@]34[C@H]([C@@H](O)[C@@H]1O)[C@@]1(C)CC(=O)C(O)=C(C)[C@@H]1C[C@H]3OC(=O)[C@H](OC(=O)/C=C(\C)C(C)(C)O)[C@@H]24
HCT-116 [1]
  IC50: 250 nM

## COC(=O)[C@@]12OC[C@]34[C@H]([C@@H](O)[C@@H]1O)[C@@]1(C)CC(=O)C(O)=C(C)[C@@H]1C[C@H]3OC(=O)[C@H](OC(=O)/C=C(\C)C(C)(C)OC(C)=O)[C@@H]24
MCF7 [2]
  IC50: 63 nM
HCT-116 [1]
  IC50: 50 nM
MDA-MB-231 [3]
  IC50: 88 nM

## CC(=O)O[C@H]1CC(=O)OC(C)(C)[C@@H]2CC(=O)[C@]3(C)[C@H](CC[C@@]4(C)[C@H](c5ccoc5)OC(=O)[C@H]5O[C@]543)[C@@]12C
MDA-MB-435
  IC50: 780 nM
MCF7 [4]
  IC50: 97 nM

## Cc1ccccc1Cn1cc(CO[C@H]2C(=O)O[C@H]3O[C@]45C(=O)O[C@@H]6[C@H](O)[C@@H](C(C)(C)C)[C@@]32[C@@]64[C@@H](O)[C@@H]2OC(=O)[C@@H](C)[C@@]25O)nn1
[5]
  IC50: 38 nM

## CC(=O)O[C@@H]1C[C@H](O)[C@@]23COC(O)[C@]1(C)[C@@H]2C[C@@H](O)[C@@]1(C)[C@@H]2C(=O)C[C@@H](c4ccoc4)[C@]2(C)CC(=O)[C@@H]13 (stereo not given in full)
P388
  IC50: 58000 nM

## C[C@@H](O)[C@H]1OC(=O)C=C2[C@]3(C)[C@H]4[C@H](OC(=O)[C@@]4(C)[C@@H](O)[C@H]4O[C@H]43)[C@H]3O[C@@]231
MDA-MB-231 [6]
  IC50: 3000 nM
HepG2
  IC50: 11000 nM
PANC-1
  IC50: 16000 nM
HeLa
  IC50: 1800 nM
AGS
  IC50: 1300 nM

## C[C@@]12C3=CC(=O)O[C@H]([C@H](O)CO)[C@]34O[C@@H]4[C@H]3OC(=O)[C@](C)([C@H]31)[C@@H](O)[C@H]1O[C@H]12
MDA-MB-231 [6]
  IC50: > 40000 nM
HepG2
  IC50: > 40000 nM
PANC-1
  IC50: > 40000 nM
HeLa
  IC50: > 40000 nM
AGS
  IC50: > 40000 nM

## CC1(C)O[C@H]2CC(=O)OC[C@@]23[C@H]1CC(=O)[C@@]1(C)C2=CC(=O)O[C@@H](c4ccoc4)[C@]2(C)CC[C@@H]13
MDA-MB-435
  IC50: 1700 nM
MCF7 [4]
  IC50: 5500 nM

## Cc1ccccc1Cn1cc(CO[C@H]2C(=O)O[C@H]3O[C@]45C(=O)O[C@@H]6C[C@@H](C(C)(C)C)[C@@]32[C@@]64C[C@@H]2OC(=O)[C@@H](C)[C@@]25O)nn1
[5]
  IC50: 71 nM

## CC1(C)OC(=O)C[C@H](O)[C@]2(C)[C@H]3CC[C@@]4(C)[C@H](c5ccoc5)OC(=O)[C@H]5O[C@]54[C@]3(C)C(=O)C[C@@H]12
MDA-MB-435
  IC50: 150 nM
MCF7 [4]
  IC50: 10 nM

## CC(C)[C@H]1OC(=O)C=C2C1=C[C@H]1OC(=O)[C@@]3(C)C[C@@H](O)C[C@@]2(C)[C@@H]13
MDA-MB-231 [6]
  IC50: 1100 nM
HepG2
  IC50: 3700 nM
PANC-1
  IC50: 3100 nM
HeLa
  IC50: 900 nM
AGS
  IC50: 370 nM

## CC(=O)O[C@@]1(C)COC2(C1)OC(=O)[C@H]([C@@H]1CC[C@]34C[C@]13C=C[C@@H]1[C@@]3(C)CC=C5C[C@@H](Cc6ccccc6)OC[C@]5(C)[C@@H]3[C@@H](O)C(=O)[C@]14C)[C@H]2O (stereo not given in full)
HCT-116 [7]
  IC50: 9.9 nM
WM 266-4
  IC50: 78 nM

## Cc1ccccc1Cn1cc(CO[C@H]2C(=O)O[C@H]3O[C@]45C(=O)O[C@@H]6C[C@@H](C(C)(C)C)[C@@]32[C@@]64[C@@H](O)[C@@H]2OC(=O)[C@@H](C)[C@@]25O)nn1
[5]
  IC50: 5.7 nM

## C/C(C=O)=C\[C@H]1C[C@@H]([C@@H]2CC[C@]34C[C@]23C=C[C@@H]2[C@@]3(C)CC=C5C[C@@H](c6ccccc6)OC[C@]5(C)[C@@H]3C[C@@H](O)[C@]24C)C(=O)O1
HCT-116 [7]
  IC50: 92 nM
WM 266-4
  IC50: 1500 nM

## CC(O)(CO)[C@H]1C[C@H](O)[C@@H]([C@@H]2CC=C3[C@]4(C)[C@H](O)C[C@@H]5[C@](C)(CC=C6C[C@@H](Cc7ccccc7)OC[C@@]65C)[C@H]4CC[C@]32C)[C@@H](O)O1 (stereo not given in full)
HCT-116 [7]
  IC50: 4200 nM
WM 266-4
  IC50: 31000 nM

## CC(=O)O[C@@H]1C[C@H](O)[C@@]23COC(O)[C@]1(C)[C@@H]2C[C@@H](O)[C@]1(C)[C@@H]3C(=O)C[C@@]2(C)[C@H](c3ccoc3)C[C@H]3O[C@@]312 (stereo not given in full)
P388
  IC50: < 1.9 nM

## CC(=O)OC1OC[C@@]23[C@H]4C(=O)C(OC(C)=O)[C@@]5(C)[C@H](c6ccoc6)C[C@H]6O[C@]65[C@]4(C)[C@H](O)C[C@H]2[C@]1(C)[C@H](OC(C)=O)C[C@@H]3O (stereo not given in full)
P388
  IC50: 16 nM

## C[C@]1(O)COC2(C[C@@H]([C@@H]3CC[C@]45C[C@]34C=C[C@@H]3[C@@]4(C)CC=C6C[C@@H](Cc7ccccc7)OC[C@]6(C)[C@@H]4C[C@@H](O)[C@]35C)C(=O)O2)C1 (stereo not given in full)
HCT-116 [7]
  IC50: 450 nM
WM 266-4
  IC50: 1300 nM

## CC(=O)O[C@@]1(C)COC2(C1)OC(=O)[C@H]([C@@H]1CC[C@]34C[C@]13C=C[C@@H]1[C@@]3(C)CC=C5C[C@@H](Cc6ccccc6)OC[C@]5(C)[C@@H]3CC(=O)[C@]14C)[C@H]2O (stereo not given in full)
HCT-116 [7]
  IC50: 58 nM
WM 266-4
  IC50: 230 nM

## C=C[C@H]1OC(=O)C=C2C1=C[C@H]1OC(=O)[C@@]3(C)CCC[C@@]2(C)[C@@H]13
P388
  IC50: 160 nM

## C=C[C@H]1OC(=O)C=C2[C@]3(C)[C@H]4[C@H](OC(=O)[C@@]4(C)[C@@H](O)[C@H]4O[C@H]43)[C@H]3O[C@@]231
MDA-MB-231 [6]
  IC50: 660 nM
HepG2
  IC50: 3500 nM
PANC-1
  IC50: 8500 nM
HeLa
  IC50: 620 nM
AGS
  IC50: 550 nM

## C/C(=C\[C@@H]1OC(=O)[C@H]([C@@H]2CC[C@]34C[C@]23C=C[C@@H]2[C@@]3(C)CC=C5C[C@@H](c6ccccc6)OC[C@]5(C)[C@@H]3C[C@@H](O)[C@]24C)[C@H]1O)CO
HCT-116 [7]
  IC50: 81 nM
WM 266-4
  IC50: 340 nM

## COC(=O)[C@@]12OC[C@]34[C@H]([C@@H](O)[C@@H]1O)[C@@]1(C)CC(=O)C(O)=C(C)[C@@H]1C[C@H]3OC(=O)[C@H](OC(C)=O)[C@@H]24 [BRUCEINE B]
HCT-116 [1]
  IC50: 99 nM

## COC(=O)[C@@]12OC[C@]34[C@H]([C@@H](O)[C@@H]1O)[C@@]1(C)C=C(O[C@@H]5O[C@H](CO)[C@@H](O)[C@H](O)[C@H]5O)C(=O)[C@@H](C)[C@@H]1C[C@H]3OC(=O)[C@H](OC(=O)C=C(C)C)[C@@H]24 [BRUCEOSIDE A]
MCF7 [2]
  IC50: > 50000 nM
MDA-MB-231 [3]
  IC50: > 50000 nM

## C=C1[C@@H](O)C[C@H]2C(C)(C)C[C@H](Cl)C[C@]2(C)[C@H]1C[C@H](O)[C@H]1CC(=O)NC1=O [CHLOROLISSOCLIMIDE]
P388
  IC50: 4 nM

## C=C1[C@@H](O)C[C@H]2C(C)(C)[C@@H](Cl)[C@H](Cl)C[C@]2(C)[C@H]1C[C@H](O)[C@H]1CC(=O)NC1=O [DICHLOROLISSOCLIMIDE]
P388
  IC50: 2 nM

## CC(C)c1oc(=O)cc2c1[C@@H](O)[C@H]1OC(=O)[C@@]3(C)[C@@H](O)[C@H]4O[C@H]4[C@@]2(C)[C@@H]13 [NAGILACTONE C]
MDA-MB-231 [6]
  IC50: 5000 nM
HepG2
  IC50: 14000 nM
PANC-1
  IC50: > 40000 nM
HeLa
  IC50: 3300 nM
AGS
  IC50: 2300 nM

## CC(C)[C@H]1OC(=O)C=C2C1=C[C@H]1OC(=O)[C@@]3(C)CCC[C@@]2(C)[C@@H]13 [NAGILACTONE F]
MDA-MB-231 [6]
  IC50: 1000 nM
HepG2
  IC50: 1300 nM
PANC-1
  IC50: 19000 nM
HeLa
  IC50: 720 nM
P388
  IC50: 280 nM
AGS
  IC50: 500 nM
